Drawing on patent US10993947B2, “Treatment of skin lesions” (PIQUR THERAPEUTICS AG, priority 2016, dated 2021), this text covers IC50 for 30 molecules.

In test [1] the target is T1, N-terminally GST-tagged mTOR (Homo sapiens, UniProt P42345).
T1 construct: truncated version: amino acids 1360-2549; purchased Life Technologies PR8683B
Kind of test: In vitro mTOR binding assay (LanthaScreen TR-FRET).
Description: A 10-point 4-fold serial dilution (highest concentration at 10 μmol/L and lowest concentration at 40 μmol/L) of each compound was tested for mTOR binding in duplicate in a 384-well plate. […] After 30 min incubation at RT, time-resolved FRET was measured with a Synergy 4 multi-mode microplate reader (Biotek Instruments) using the following settings: 100 microsecs delay before data collection, 200 microsecs time for data collection, 10 measurements per data point.
IC50 values of each compound were determined by plotting the emission ratio versus the compound concentrations (in logarithmic scale) and then by fitting a sigmoidal dose-response curve with variable slope to the data using GraphPad™ Prism.

A further test relates to pPKB S473 in A2058 cells. Kind of test: In-cell Western blot, pPKB S473. Format: cell-based. The following applies: Homo sapiens, 1 hour treatment.
Test [2] concerns pS6 S235/S236 in A2058 cells. Put plainly: In-cell Western blot, pS6 S235/S236. The test is classed as cell-based. The note with it: Homo sapiens, 1 hour treatment.
Description: (§1) Cells are fixed with 4% paraformaldehyde for 30 minutes at room temperature, washed 2 times with 1% BSA in PBS, permeabilized with 0.1% Triton X-100 in PBS/1% BSA for 30 minutes at room temperature and blocked with 5% goat serum in PBS/1% BSA/0.1% Triton X-100 for 30 minutes at room temperature. […] Cells are washed 3 times 5 minutes with PBS/1% BSA/0.1% triton and plate scanned with the Odyssey Infrared Scanning system using both 700 and 800 nm channels. […] To correct for background staining in the data analysis wells are treated only with secondary antibodies.
(§2) For data analysis the mean background signal from channel 700 nm and 800 nm are subtracted from each signal in channel 700 nm and 800 nm, respectively.
(§3) IC50 values of each compound are determined by plotting the normalized pPBK S473 and pS6 S235/S236 signals, respectively, versus the compound concentrations (in logarithmic scale) and then by fitting a sigmoidal dose-response curve with variable slope to the data using GraphPad™ Prism.
Setting [3] is: LanthaScreen kinase binding, Tracer 314, read-out: mTOR IC50 (binding).

Like-named read-outs stand apart in the source and are kept apart here. Where only a bound is given, the exact number is not on record here.

T1 sequence (P42345 1360-2549): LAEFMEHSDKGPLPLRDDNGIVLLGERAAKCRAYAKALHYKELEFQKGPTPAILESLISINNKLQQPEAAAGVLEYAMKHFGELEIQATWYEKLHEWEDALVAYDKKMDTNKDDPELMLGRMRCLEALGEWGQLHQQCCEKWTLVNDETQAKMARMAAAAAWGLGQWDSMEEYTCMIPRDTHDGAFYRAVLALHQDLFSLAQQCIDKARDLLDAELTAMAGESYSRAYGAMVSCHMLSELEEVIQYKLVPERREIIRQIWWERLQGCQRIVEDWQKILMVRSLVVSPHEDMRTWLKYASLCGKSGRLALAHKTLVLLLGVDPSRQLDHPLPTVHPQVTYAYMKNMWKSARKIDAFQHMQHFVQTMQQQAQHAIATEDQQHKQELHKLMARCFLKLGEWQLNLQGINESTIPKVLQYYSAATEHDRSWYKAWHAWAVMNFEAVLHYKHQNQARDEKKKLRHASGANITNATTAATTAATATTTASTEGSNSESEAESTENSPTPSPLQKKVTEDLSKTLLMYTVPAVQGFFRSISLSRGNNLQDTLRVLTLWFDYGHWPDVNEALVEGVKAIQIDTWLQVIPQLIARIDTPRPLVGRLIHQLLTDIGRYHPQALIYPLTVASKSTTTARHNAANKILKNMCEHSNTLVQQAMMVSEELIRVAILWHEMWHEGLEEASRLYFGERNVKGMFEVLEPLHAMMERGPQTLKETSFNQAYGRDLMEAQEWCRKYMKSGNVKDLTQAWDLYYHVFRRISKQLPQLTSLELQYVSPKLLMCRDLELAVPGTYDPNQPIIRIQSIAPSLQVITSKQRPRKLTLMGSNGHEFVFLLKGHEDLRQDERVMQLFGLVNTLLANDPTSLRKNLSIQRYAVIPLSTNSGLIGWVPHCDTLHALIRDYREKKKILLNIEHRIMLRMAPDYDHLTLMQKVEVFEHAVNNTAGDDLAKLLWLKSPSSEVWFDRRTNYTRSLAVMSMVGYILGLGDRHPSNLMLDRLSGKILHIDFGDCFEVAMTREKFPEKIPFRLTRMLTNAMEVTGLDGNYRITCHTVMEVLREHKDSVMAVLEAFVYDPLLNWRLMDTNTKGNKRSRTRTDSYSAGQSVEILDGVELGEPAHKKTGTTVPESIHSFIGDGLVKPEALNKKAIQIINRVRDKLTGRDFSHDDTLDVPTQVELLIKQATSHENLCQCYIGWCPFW
Description for pPKB S473 in A2058 cells: as §1, §2, §3

A word on the IC50: it is the concentration needed to halve the response being measured. Consider `Nc1ncc(-c2nc(N3CCOCC3)nc(N3CCOCC3)n2)c(C(F)F)n1` [Compound 2], for which, in test [1] (setting [3]), the IC50 was 59 nM.

`C[C@@H]1COCCN1c1nc(-c2cnc(N)cc2C(F)F)nc(N2C3COCC2C3)n1` [Compound 50, 4-(difluoromethyl)-5-[4-[(3R)-3-methylmorpholin-4-yl]-6-(3-oxa-6-azabicyclo[3.1.1]heptan-6-yl)-1,3,5-triazin-2-yl]pyridin-2-amine]: the IC50 worked out at 1560 nM in the test on pPKB S473 in A2058 cells (A2058, 1 h) and 407 nM in test [2] (A2058, 1 h).

Consider `COCCN1CCN(c2nc(-c3cnc(N)cc3C(F)F)nc(N3CCOCC3(C)C)n2)CC1` [Compound 71, 4-(difluoromethyl)-5-[4-(3,3-dimethylmorpholin-4-yl)-6-[4-(2-methoxyethyl)piperazin-1-yl]-1,3,5-triazin-2-yl]pyridin-2-amine], for which the 50% inhibitory concentration (IC50) with pPKB S473 in A2058 cells (A2058, 1 h) was 2340 nM; in test [2] (A2058, 1 h), 3140 nM.

With `Nc1ncc(-c2nc(N3CCOCC3)cc(N3CCOCC3)n2)c(C(F)F)n1` [Compound 19, 4′-(difluoromethyl)-4,6-dimorpholino-[2,5′-bipyrimidin]-2′-amine], the IC50 in test [1] (setting [3]) is 158 nM.

For the molecule `Nc1cc(C(F)F)c(-c2nc(N3CCOCC34CCC4)nc(N3CCOCC34CCC4)n2)cn1` [Compound 55, 5-[4,6-bis(8-oxa-5-azaspiro[3.5]nonan-5-yl)-1,3,5-triazin-2-yl]-4-(difluoromethyl)pyridin-2-amine], the IC50 with pPKB S473 in A2058 cells (A2058, 1 h) was 942 nM; in test [2] (A2058, 1 h), 526 nM.

On to `Nc1ncc(-c2nc(N3CCOCC3)nc(N3C4CCC3COC4)n2)c(C(F)F)n1` [Compound 5, 5-(4-(3-oxa-8-azabicyclo[3.2.1]octan-8-yl)-6-morpholino-1,3,5-triazin-2-yl)-4-(difluoromethyl)pyrimidin-2-amine], for which the IC50 with pPKB S473 in A2058 cells (A2058, 1 h) turned out to be 85 nM; in test [2] (A2058, 1 h) it was 135 nM.

In the case of `C[C@@H]1COCCN1c1nc(-c2cnc(N)cc2C(F)F)nc(N2CC3CC(C2)O3)n1` [Compound 51, 4-(difluoromethyl)-5-[4-[(3R)-3-methylmorpholin-4-yl]-6-(6-oxa-3-azabicyclo[3.1.1]heptan-3-yl)-1,3,5-triazin-2-yl]pyridin-2-amine], the IC50 was 875 nM with pPKB S473 in A2058 cells (A2058, 1 h) and 352 nM in test [2] (A2058, 1 h).

As to `CC1(C)COCCN1c1nc(-c2cnc(N)cc2C(F)F)nc(N2CCOC[C@H]2CO)n1` [Compound 68, [(3R)-4-[4-[6-amino-4-(difluoromethyl)-3-pyridyl]-6-(3,3-dimethylmorpholin-4-yl)-1,3,5-triazin-2-yl]morpholin-3-yl]methanol], the IC50 in the test with pPKB S473 in A2058 cells (A2058, 1 h) was determined as 682 nM; in test [2] (A2058, 1 h) it was 415 nM.

With `Nc1cc(C(F)F)c(-c2nc(N3CCOCC3)nc(N3C4CCCC3COC4)n2)cn1` [Compound 80, 4-(difluoromethyl)-5-[4-morpholino-6-(3-oxa-9-azabicyclo[3.3.1]nonan-9-yl)-1,3,5-triazin-2-yl]pyridin-2-amine], the IC50 turned out to be 94 nM in the test on pPKB S473 in A2058 cells (A2058, 1 h) and 117 nM in test [2] (A2058, 1 h).

For the molecule `C[C@H]1COCCN1c1cc(-c2cnc(N)nc2C(F)F)nc(N2CCOCC2)n1` [Compound 28, (S)-4′-(difluoromethyl)-6-(3-methylmorpholino)-2-morpholino-[4,5′-bipyrimidin]-2′-amine], the IC50 in test [1] (setting [3]) stood at 23 nM.

Regarding `C[C@H]1COCCN1c1nc(-c2cnc(N)nc2C(F)F)nc(N2CCNCC2)n1` [Compound 15, (S)-4-(difluoromethyl)-5-(4-(3-methylmorpholino)-6-(piperazin-1-yl)-1,3,5-triazin-2-yl)pyrimidin-2-amine], the IC50 in the test with pPKB S473 in A2058 cells (A2058, 1 h) stood at 49 nM; in test [2] (A2058, 1 h), 286 nM.

For `C[C@H]1COCCN1c1nc(-c2cnc(N)cc2C(F)(F)F)nc(N2CCOCC2)n1` [Compound 8 *, 5-[4-[(3S)-3-methylmorpholin-4-yl]-6-morpholino-1,3,5-triazin-2-yl]-4-(trifluoromethyl)pyridin-2-amine], the values for the half-maximal inhibitory concentration (IC50) (with pPKB S473 in A2058 cells; in test [2]) were 196 nM and 90 nM, respectively.

On to `C[C@H]1COCCN1c1nc(-c2cnc(N)cc2C(F)F)nc(N2CCNCC2)n1` [Compound 14, (S)-4-(difluoromethyl)-5-(4-(3-methylmorpholino)-6-(piperazin-1-yl)-1,3,5-triazin-2-yl)pyridin-2-amine], for which the concentration for half-maximal inhibition (IC50) amounted to 350 nM in the test with pPKB S473 in A2058 cells (A2058, 1 h) and 883 nM in test [2] (A2058, 1 h).

`C[C@H]1COCCN1c1nc(-c2cnc(N)cc2C(F)F)nc(N2C3CCC2COC3)n1` [Compound 10, 5-(4-(3-oxa-8-azabicyclo[3.2.1]octan-8-yl)-6-((S)-3-methylmorpholino)-1,3,5-triazin-2-yl)-4-(difluoromethyl)pyridin-2-amine]: the IC50 in the test with pPKB S473 in A2058 cells (A2058, 1 h) was 138 nM; in test [2] (A2058, 1 h) it was 93 nM.

Turning to `Nc1cc(C(F)F)c(-c2nc(N3C4CCC3COC4)nc(N3C4COCC3COC4)n2)cn1` [Compound 38, 4-(difluoromethyl)-5-[4-(3,7-dioxa-9-azabicyclo[3.3.1]nonan-9-yl)-6-(3-oxa-8-azabicyclo[3.2.1]octan-8-yl)-1,3,5-triazin-2-yl]pyridin-2-amine], the 50% inhibitory concentration (IC50) in the test with pPKB S473 in A2058 cells (A2058, 1 h) is 219 nM; in test [2] (A2058, 1 h), 79 nM.

Consider `CC[C@H]1COCCN1c1nc(-c2cnc(N)cc2C(F)F)nc(N2CCOC[C@H]2C)n1` [Compound 85, 4-(difluoromethyl)-5-[4-[(3S)-3-ethylmorpholin-4-yl]-6-[(3R)-3-methylmorpholin-4-yl]-1,3,5-triazin-2-yl]pyridin-2-amine], for which the IC50 in the test on pPKB S473 in A2058 cells (A2058, 1 h) is 249 nM; in test [2] (A2058, 1 h), 241 nM.

`C[C@H]1COCCN1c1nc(-c2cnc(N)nc2C(F)F)nc(N2CCOC[C@@H]2C)n1` [Compound 7]: in test [1] (setting [3]), the 50% inhibitory concentration (IC50) came out at 71 nM.

`Nc1cc(C(F)F)c(-c2nc(N3CCOCC3)nc(N3C4COCC3COC4)n2)cn1` [Compound 84, 4-(difluoromethyl)-5-[4-(3,7-dioxa-9-azabicyclo[3.3.1]nonan-9-yl)-6-morpholino-1,3,5-triazin-2-yl]pyridin-2-amine]: the concentration for half-maximal inhibition (IC50) in the test on pPKB S473 in A2058 cells (A2058, 1 h) amounted to 116 nM; in test [2] (A2058, 1 h), 146 nM.

On to `CC[C@@H]1COCCN1c1nc(-c2cnc(N)cc2C(F)F)nc(N2CCOC[C@H]2CC)n1` [Compound 54, 5-[4,6-bis[(3R)-3-ethylmorpholin-4-yl]-1,3,5-triazin-2-yl]-4-(difluoromethyl)pyridin-2-amine], for which the 50% inhibitory concentration (IC50) with pPKB S473 in A2058 cells (A2058, 1 h) was 354 nM; in test [2] (A2058, 1 h) it was 209 nM.

Take `Nc1cc(C(F)(F)F)c(-c2cc(N3CCOCC3)nc(N3CCOCC3)n2)cn1` [reference compound]: the IC50 in the test on pPKB S473 in A2058 cells (A2058, 1 h) came to 263 nM; in test [2] (A2058, 1 h), 277 nM.

On to `CC(C)[C@@H]1COCCN1c1nc(-c2cnc(N)cc2C(F)F)nc(N2CCOC[C@H]2C(C)C)n1` [Compound 56, 5-[4,6-bis[(3R)-3-isopropylmorpholin-4-yl]-1,3,5-triazin-2-yl]-4-(difluoromethyl)pyridin-2-amine], for which the 50% inhibitory concentration (IC50) in the test with pPKB S473 in A2058 cells (A2058, 1 h) was more than 10000 nM; in test [2] (A2058, 1 h), more than 10000 nM.

The molecule `C[C@@H]1COCCN1c1nc(-c2cnc(N)cc2C(F)F)nc(N2CCOC[C@H]2CO)n1` [Compound 77, [(3R)-4-[4-[6-amino-4-(difluoromethyl)-3-pyridyl]-6-[(3R)-3-methylmorpholin-4-yl]-1,3,5-triazin-2-yl]morpholin-3-yl]methanol] returned an IC50 in the test on pPKB S473 in A2058 cells (A2058, 1 h) of 476 nM.

Take `C[C@@H]1COCCN1c1nc(-c2cnc(N)cc2C(F)F)nc(N2C[C@@H]3C[C@H]2CO3)n1` [Compound 53, 4-(difluoromethyl)-5-[4-[(3R)-3-methylmorpholin-4-yl]-6-[(1S,4S)-2-oxa-5-azabicyclo[2.2.1]heptan-5-yl]-1,3,5-triazin-2-yl]pyridin-2-amine]: the IC50 in the test with pPKB S473 in A2058 cells (A2058, 1 h) was 1320 nM; in test [2] (A2058, 1 h) it was 612 nM.

Consider `C[C@H]1COCCN1c1nc(-c2cnc(N)nc2C(F)F)nc(N2C3CCC2COC3)n1` [Compound 11, 5-(4-(3-oxa-8-azabicyclo[3.2.1]octan-8-yl)-6-((S)-3-methylmorpholino)-1,3,5-triazin-2-yl)-4-(difluoromethyl)pyrimidin-2-amine], for which the IC50 with pPKB S473 in A2058 cells (A2058, 1 h) was found to be 61 nM; in test [2] (A2058, 1 h) it was 96 nM.

Consider `C[C@@H]1COCCN1c1nc(-c2cnc(N)cc2C(F)F)nc(N2C[C@H]3C[C@@H]2CO3)n1` [Compound 52, 4-(difluoromethyl)-5-[4-[(3R)-3-methylmorpholin-4-yl]-6-[(1R,4R)-2-oxa-5-azabicyclo[2.2.1]heptan-5-yl]-1,3,5-triazin-2-yl]pyridin-2-amine], for which the IC50 in the test with pPKB S473 in A2058 cells (A2058, 1 h) was determined as 1050 nM; in test [2] (A2058, 1 h), 332 nM.

Turning to `CC1(C)COCCN1c1nc(-c2cnc(N)cc2C(F)F)nc(N2CCN(C3CC3)CC2)n1` [Compound 70, 5-[4-(4-cyclopropylpiperazin-1-yl)-6-(3,3-dimethylmorpholin-4-yl)-1,3,5-triazin-2-yl]-4-(difluoromethyl)pyridin-2-amine], the IC50 in the test on pPKB S473 in A2058 cells (A2058, 1 h) amounted to 914 nM; in test [2] (A2058, 1 h) it was 906 nM.

With `CC[C@@H]1COCCN1c1nc(-c2cnc(N)cc2C(F)F)nc(N2CCOC[C@H]2C)n1` [Compound 86, 4-(difluoromethyl)-5-[4-[(3R)-3-ethylmorpholin-4-yl]-6-[(3R)-3-methylmorpholin-4-yl]-1,3,5-triazin-2-yl]pyridin-2-amine], the IC50 with pPKB S473 in A2058 cells (A2058, 1 h) was found to be 231 nM; in test [2] (A2058, 1 h), 236 nM.

For the molecule `Nc1cc(C(F)F)c(-c2nc(N3C4COCC3COC4)nc(N3C4COCC3COC4)n2)cn1` [Compound 37, 5-[4,6-bis(3,7-dioxa-9-azabicyclo[3.3.1]nonan-9-yl)-1,3,5-triazin-2-yl]-4-(difluoromethyl)pyridin-2-amine], the IC50 in test [1] came out at 49 nM.

For `Nc1cc(C(F)F)c(-c2nc(N3CCOCC3)nc(N3C4CCC3COC4)n2)cn1` [Compound 4, 5-(4-(3-oxa-8-azabicyclo[3.2.1]octan-8-yl)-6-morpholino-1,3,5-triazin-2-yl)-4-(difluoromethyl)pyridin-2-amine], the half-maximal inhibitory concentration (IC50) in the test on pPKB S473 in A2058 cells (A2058, 1 h) turned out to be 178 nM; in test [2] (A2058, 1 h), 135 nM.

As for `COC[C@@H]1COCCN1c1nc(-c2cnc(N)cc2C(F)F)nc(N2CCOCC2(C)C)n1` [Compound 67, 4-(difluoromethyl)-5-[4-(3,3-dimethylmorpholin-4-yl)-6-[(3R)-3-(methoxymethyl)morpholin-4-yl]-1,3,5-triazin-2-yl]pyridin-2-amine], the concentration for half-maximal inhibition (IC50) in the test with pPKB S473 in A2058 cells (A2058, 1 h) was 787 nM; in test [2] (A2058, 1 h), 395 nM.
